Blank lines part the entries; values can stand above or below the molecule they belong to.
System: 782815-120-R-J1-PDC complex spheroid viability
Assay: Anticancer human tumor 782815-120-R-J1-PDC patient-derived colon adenocarcinoma cell line growth inhibition [RAS]
Conditions: for viability, T/C: stronger effect = lower value
Procedure, shortened: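 Multi-cell-type spheroids: tumor cells plus HUVEC endothelial cells and mesenchymal stem cells. RAS-pathway inhibitors were combined with targeted agents, each dosed in half-log steps down from clinical Cmax, or from 10 microM when Cmax was unknown.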

[1] = curve of first compound, second compound 0.0316 µM
[2] = curve of first compound, second compound 0.1 µM
[3] = curve of first compound, second compound 0.316 µM
[4] = curve of first compound, second compound 1 µM
[5] = second compound 0.0316 µM, first compound 0.00316 µM
[6] = second compound 0.0316 µM, first compound 0.01 µM
[7] = second compound 0.0316 µM, first compound 0.0316 µM
[8] = second compound 0.0316 µM, first compound 0.1 µM
[9] = second compound 0.1 µM, first compound 0.00316 µM
[10] = second compound 0.1 µM, first compound 0.01 µM
[11] = second compound 0.1 µM, first compound 0.0316 µM
[12] = second compound 0.1 µM, first compound 0.1 µM
[13] = second compound 0.316 µM, first compound 0.00316 µM
[14] = second compound 0.316 µM, first compound 0.01 µM
[15] = second compound 0.316 µM, first compound 0.0316 µM
[16] = second compound 0.316 µM, first compound 0.1 µM
[17] = second compound 1 µM, first compound 0.00316 µM
[18] = second compound 1 µM, first compound 0.01 µM
[19] = second compound 1 µM, first compound 0.0316 µM
[20] = second compound 1 µM, first compound 0.1 µM
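Further: spheroids exposed to compounds for 7 days before reading.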
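Wherever viability, T/C is given: 100% = DMSO vehicle control viability.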

IC50 (curve of first compound, second compound 0.000949 µM): > 1000 nM | IC50 (curve of first compound, second compound 0.003 µM): > 1000 nM | IC50 (curve of first compound, second compound 0.00949 µM): > 1000 nM | IC50 (curve of first compound, second compound 0.03 µM): > 1000 nM | IC50 (curve of first compound, second compound 0.0949 µM): > 1000 nM | IC50 (curve of first compound, second compound 0.3 µM): > 1000 nM
SMILES: C=CC(=O)Nc1cc(Nc2nccc(-c3cn(C)c4ccccc34)n2)c(OC)cc1N(C)CCN(C)C + CCn1c(-c2cccnc2C(C)OC)c2c3cc(ccc31)N1CCOC(CC(NC(=O)C(C(C)C)N(C)C(=O)C3(F)CCN(C(=O)C#CC(C)(C)N(C)C)CC3)C(=O)N3CCCC(N3)C(=O)OCC(C)(C)C2)C1
viability, T/C (second compound 0.000949 µM, first compound 0.00316 µM): 102% | viability, T/C (second compound 0.000949 µM, first compound 0.01 µM): 97.7% | viability, T/C (second compound 0.000949 µM, first compound 0.0316 µM): 99.6% | viability, T/C (second compound 0.000949 µM, first compound 0.1 µM): 103% | viability, T/C (second compound 0.000949 µM, first compound 0.316 µM): 87.2% | viability, T/C (second compound 0.000949 µM, first compound 1 µM): 84% | viability, T/C (second compound 0.003 µM, first compound 0.00316 µM): 102% | viability, T/C (second compound 0.003 µM, first compound 0.01 µM): 91.1% | viability, T/C (second compound 0.003 µM, first compound 0.0316 µM): 90.9% | viability, T/C (second compound 0.003 µM, first compound 0.1 µM): 91.9% | viability, T/C (second compound 0.003 µM, first compound 0.316 µM): 93.8% | viability, T/C (second compound 0.003 µM, first compound 1 µM): 83.2% | viability, T/C (second compound 0.00949 µM, first compound 0.00316 µM): 96.9% | viability, T/C (second compound 0.00949 µM, first compound 0.01 µM): 92.8% | viability, T/C (second compound 0.00949 µM, first compound 0.0316 µM): 94.2% | viability, T/C (second compound 0.00949 µM, first compound 0.1 µM): 96.5% | viability, T/C (second compound 0.00949 µM, first compound 0.316 µM): 100% | viability, T/C (second compound 0.00949 µM, first compound 1 µM): 84.3% | viability, T/C (second compound 0.03 µM, first compound 0.00316 µM): 86.4% | viability, T/C (second compound 0.03 µM, first compound 0.01 µM): 92.8% | viability, T/C (second compound 0.03 µM, first compound 0.0316 µM): 96.3% | viability, T/C (second compound 0.03 µM, first compound 0.1 µM): 86.4% | viability, T/C (second compound 0.03 µM, first compound 0.316 µM): 93% | viability, T/C (second compound 0.03 µM, first compound 1 µM): 86.1% | viability, T/C (second compound 0.0949 µM, first compound 0.00316 µM): 94.2% | viability, T/C (second compound 0.0949 µM, first compound 0.01 µM): 94.8% | viability, T/C (second compound 0.0949 µM, first compound 0.0316 µM): 85.3% | viability, T/C (second compound 0.0949 µM, first compound 0.1 µM): 97.3% | viability, T/C (second compound 0.0949 µM, first compound 0.316 µM): 106% | viability, T/C (second compound 0.0949 µM, first compound 1 µM): 86.4% | viability, T/C (second compound 0.3 µM, first compound 0.00316 µM): 85.1% | viability, T/C (second compound 0.3 µM, first compound 0.01 µM): 88% | viability, T/C (second compound 0.3 µM, first compound 0.0316 µM): 96.7% | viability, T/C (second compound 0.3 µM, first compound 0.1 µM): 88.7% | viability, T/C (second compound 0.3 µM, first compound 0.316 µM): 97% | viability, T/C (second compound 0.3 µM, first compound 1 µM): 73.8%

IC50 (curve of compound): > 10000 nM
SMILES: C[C@@H](NC(=O)c1ncnc(N)c1Cl)c1ncc(C(=O)Nc2cc(C(F)(F)F)c(Cl)cn2)s1
viability, T/C (compound 0.0316 µM): 105% [middle of 4 runs] | viability, T/C (compound 0.1 µM): 99.3% [middle of 4 runs] | viability, T/C (compound 0.316 µM): 98.1% [middle of 4 runs] | viability, T/C (compound 3.16 µM): 83% [middle of 4 runs] | viability, T/C (compound 10 µM): 62.2% [middle of 4 runs]

IC50 [1]: > 1000 nM | IC50 [2]: > 1000 nM | IC50 [3]: > 1000 nM | IC50 [4]: > 1000 nM | IC50 (curve of first compound, second compound 3.16 µM): > 1000 nM | IC50 (curve of first compound, second compound 10 µM): > 1000 nM
SMILES: C=CC(=O)Nc1cc(Nc2nccc(-c3cn(C)c4ccccc34)n2)c(OC)cc1N(C)CCN(C)C + C#Cc1c(F)ccc2cc(O)cc(-c3ncc4c(N5CC6CCC(C5)N6)nc(OCC56CCCN5CC(F)C6)nc4c3F)c12
viability, T/C [5]: 99.3% | viability, T/C [6]: 93.8% | viability, T/C [7]: 101% | viability, T/C [8]: 97.2% | viability, T/C (second compound 0.0316 µM, first compound 0.316 µM): 98.9% | viability, T/C (second compound 0.0316 µM, first compound 1 µM): 93.6% | viability, T/C [9]: 103% | viability, T/C [10]: 97.2% | viability, T/C [11]: 97.5% | viability, T/C [12]: 93.6% | viability, T/C (second compound 0.1 µM, first compound 0.316 µM): 101% | viability, T/C (second compound 0.1 µM, first compound 1 µM): 89.5% | viability, T/C [13]: 98.2% | viability, T/C [14]: 94.3% | viability, T/C [15]: 105% | viability, T/C [16]: 89% | viability, T/C (second compound 0.316 µM, first compound 0.316 µM): 95% | viability, T/C (second compound 0.316 µM, first compound 1 µM): 101% | viability, T/C [17]: 95.5% | viability, T/C [18]: 96% | viability, T/C [19]: 101% | viability, T/C [20]: 92.4% | viability, T/C (second compound 1 µM, first compound 0.316 µM): 100% | viability, T/C (second compound 1 µM, first compound 1 µM): 101% | viability, T/C (second compound 3.16 µM, first compound 0.00316 µM): 99.9% | viability, T/C (second compound 3.16 µM, first compound 0.01 µM): 101% | viability, T/C (second compound 3.16 µM, first compound 0.0316 µM): 98.4% | viability, T/C (second compound 3.16 µM, first compound 0.1 µM): 94.4% | viability, T/C (second compound 3.16 µM, first compound 0.316 µM): 97% | viability, T/C (second compound 3.16 µM, first compound 1 µM): 95.8% | viability, T/C (second compound 10 µM, first compound 0.00316 µM): 100% | viability, T/C (second compound 10 µM, first compound 0.01 µM): 91.7% | viability, T/C (second compound 10 µM, first compound 0.0316 µM): 110% | viability, T/C (second compound 10 µM, first compound 0.1 µM): 101% | viability, T/C (second compound 10 µM, first compound 0.316 µM): 94.4% | viability, T/C (second compound 10 µM, first compound 1 µM): 91.7%

IC50 (curve of first compound, second compound 0.00316 µM): > 100 nM | IC50 (curve of first compound, second compound 0.01 µM): > 100 nM | IC50 [1]: > 100 nM | IC50 [2]: > 100 nM | IC50 [3]: > 100 nM | IC50 [4]: > 100 nM
SMILES: CC(C)n1nc(-c2ccc3oc(N)nc3c2)c2c(N)ncnc21 + C=CC(=O)N1CCN(c2nc(OCC3CCCN3C)nc3c(F)c(-c4nc(N)cc(C)c4C(F)(F)F)c(Cl)cc23)C(C)C1
viability, T/C (second compound 0.00316 µM, first compound 0.000316 µM): 101% | viability, T/C (second compound 0.00316 µM, first compound 0.001 µM): 101% | viability, T/C (second compound 0.00316 µM, first compound 0.00316 µM): 96.1% | viability, T/C (second compound 0.00316 µM, first compound 0.01 µM): 91.7% | viability, T/C (second compound 0.00316 µM, first compound 0.0316 µM): 90.2% | viability, T/C (second compound 0.00316 µM, first compound 0.1 µM): 93.1% | viability, T/C (second compound 0.01 µM, first compound 0.000316 µM): 99.8% | viability, T/C (second compound 0.01 µM, first compound 0.001 µM): 95.9% | viability, T/C (second compound 0.01 µM, first compound 0.00316 µM): 100% | viability, T/C (second compound 0.01 µM, first compound 0.01 µM): 89.1% | viability, T/C (second compound 0.01 µM, first compound 0.0316 µM): 92.7% | viability, T/C (second compound 0.01 µM, first compound 0.1 µM): 95.5% | viability, T/C (second compound 0.0316 µM, first compound 0.000316 µM): 101% | viability, T/C (second compound 0.0316 µM, first compound 0.001 µM): 102% | viability, T/C [5]: 98.7% | viability, T/C [6]: 95.8% | viability, T/C [7]: 92.2% | viability, T/C [8]: 91.4% | viability, T/C (second compound 0.1 µM, first compound 0.000316 µM): 98.7% | viability, T/C (second compound 0.1 µM, first compound 0.001 µM): 102% | viability, T/C [9]: 91.3% | viability, T/C [10]: 92.1% | viability, T/C [11]: 105% | viability, T/C [12]: 92.6% | viability, T/C (second compound 0.316 µM, first compound 0.000316 µM): 97.5% | viability, T/C (second compound 0.316 µM, first compound 0.001 µM): 105% | viability, T/C [13]: 95.1% | viability, T/C [14]: 102% | viability, T/C [15]: 92.8% | viability, T/C [16]: 94.7% | viability, T/C (second compound 1 µM, first compound 0.000316 µM): 104% | viability, T/C (second compound 1 µM, first compound 0.001 µM): 104% | viability, T/C [17]: 91.5% | viability, T/C [18]: 96.9% | viability, T/C [19]: 94.1% | viability, T/C [20]: 87.7%
